Results reported in ChEMBL document CHEMBL1128825, “Synthetic inhibitors of interleukin-6 II: 3,5-diaryl pyridines and meta-terphenyls” (Bioorg Med Chem Lett, 1995).
pIC50: −log10 of the molar value. Activity calls are given as the source filed them. No cut-off for these calls is given here.

Tests used:
WEHI265.1 [1] = assay: In vitro inhibitory activity against lipopolysaccharide (LPS)-induced IL-6 production in murine myelomonocytic uM; format: functional, Mus musculus; set-up: concentration or dose not given beside the values
Mus musculus [2] = assay: In vivo inhibition of serum IL-5 after i.p. administration of 25 mpk dose; showed no inhibition; format: functional, organism-based
Mus musculus [3] = assay: Effective dose required for in vivo inhibition of serum IL-6.; format: functional
Mus musculus [4] = assay: In vivo inhibition of serum IL-6 after intraperitoneal administration of 25 mpk dose.; format: functional; conditions: ip
Mus musculus [5] = assay: In vivo inhibition of serum IL-1 after i.p. administration of 25 mpk dose; showed no inhibition; format: functional, organism-based
Mus musculus [6] = assay: In vivo inhibition of serum IL-6 after peroral administration of 25 mpk dose.; format: functional; conditions: po
Mus musculus [7] = assay: In vivo inhibition of TNF- alpha after intraperitoneal administration of 25 mpk dose; showed no inhibition; format: functional, organism-based
Mus musculus [8] = species: Mus musculus; assay: Inhibitory activity against serum IL-6.; format: functional, organism-based
WEHI265.1 [9] = assay: In vitro inhibitory activity against lipopolysaccharide (LPS) -induced IL-6 production in murine myelomonocytic uM; cytotoxic; format: functional, cell-based; conditions: Mus musculus

Fc1ccc(-c2cccc(-c3ccc(F)cc3)n2)cc1
Inhibition (WEHI265.1 [1]): 44%

Oc1ccc(-c2cncc(-c3ccc(O)cc3)c2)cc1
Activity (Mus musculus [2]): inactive
Inhibition (WEHI265.1 [1]): 73%
ED50 (Mus musculus [3]): 2.8 mg/kg
inhibition in vivo at 25 mg/kg (Mus musculus [4]): 63%
Activity (Mus musculus [5]): inactive
inhibition in vivo at 25 mg/kg (Mus musculus [6]): 71%
Activity (Mus musculus [7]): inactive
pIC50 (Mus musculus [8]): 6.40

c1ccc(-c2cncc(-c3ccccc3)c2)cc1
Inhibition (WEHI265.1 [1]): 8%

Oc1cccc(-c2cncc(-c3cccc(O)c3)c2)c1
Inhibition (WEHI265.1 [1]): 59%

Cc1cncc(-c2ccc(O)cc2)c1
Inhibition (WEHI265.1 [1]): 7%

Oc1ccccc1-c1cccc(-c2ccccc2O)c1
Inhibition (WEHI265.1 [1]): 21%

CN(C)Cc1ccc(-c2cncc(-c3ccc(CN(C)C)cc3)c2)cc1
Inhibition (WEHI265.1 [1]): 60%

Fc1ccc(-c2cncc(-c3ccc(F)cc3)c2)cc1
Inhibition (WEHI265.1 [1]): 44%

COc1ccc(-c2cncc(-c3ccc(OC)cc3)c2)cc1
Inhibition (WEHI265.1 [1]): 0%

COc1ccc(-c2cccc(-c3ccc(OC)cc3)n2)cc1
Inhibition (WEHI265.1 [1]): 55%

[O-][n+]1cc(-c2ccc(O)cc2)cc(-c2ccc(O)cc2)c1
Inhibition (WEHI265.1 [1]): 37%

Oc1ccc(-c2cccnc2)cc1
Inhibition (WEHI265.1 [1]): 0%

Oc1ccc(-c2cnc(Cl)c(-c3ccc(O)cc3)c2)cc1
Inhibition (WEHI265.1 [1]): 61%

Oc1ccc(-c2cccc(-c3ccc(O)cc3)n2)cc1
Inhibition (WEHI265.1 [1]): 23%

N#Cc1ncc(-c2ccc(O)cc2)cc1-c1ccc(O)cc1
Inhibition (WEHI265.1 [1]): 40%

Oc1ccc(-c2cncc(-c3ccc(O)cc3)n2)cc1
Inhibition (WEHI265.1 [1]): 55%

CN(C)Cc1ccc(-c2cccc(-c3ccc(CN(C)C)cc3)c2)cc1
inhibition (WEHI265.1 [9]): Toxic

Oc1ccc(-c2cccc(-c3ccc(O)cc3)c2)cc1
Activity (Mus musculus [2]): inactive
Inhibition (WEHI265.1 [1]): 85%
ED50 (Mus musculus [3]): 1.5 mg/kg
inhibition in vivo at 25 mg/kg (Mus musculus [4]): 88%
Activity (Mus musculus [5]): inactive
Activity (Mus musculus [7]): inactive
pIC50 (Mus musculus [8]): 5.82

Oc1ccccc1-c1cncc(-c2ccccc2O)c1
Inhibition (WEHI265.1 [1]): 23%

Fc1ccc(-c2ccc(-c3ccc(F)cc3)nc2)cc1
Inhibition (WEHI265.1 [1]): 47%

Oc1ccc(-c2ccc(-c3ccc(O)cc3)nc2)cc1
Inhibition (WEHI265.1 [1]): 27%

COc1ccccc1-c1cccc(-c2ccccc2OC)c1
Inhibition (WEHI265.1 [1]): 22%

Oc1ccc(-c2cncc(Cl)c2)cc1
Inhibition (WEHI265.1 [1]): 0%

COc1ccc(-c2ccc(-c3ccc(OC)cc3)nc2)cc1
Inhibition (WEHI265.1 [1]): 30%

Oc1ccc(-c2cnc(O)c(-c3ccc(O)cc3)c2)cc1
Inhibition (WEHI265.1 [1]): 49%

Oc1ccc(-c2cncc(-c3ccc(O)cc3)c2Cl)cc1
Inhibition (WEHI265.1 [1]): 60%

Oc1cccc(-c2cccc(-c3cccc(O)c3)c2)c1
Inhibition (WEHI265.1 [1]): 21%

COc1cccc(-c2cccc(-c3cccc(OC)c3)c2)c1
Inhibition (WEHI265.1 [1]): 24%

COc1ccc(-c2cccc(-c3ccc(OC)cc3)c2)cc1
Inhibition (WEHI265.1 [1]): 75%

Oc1ccc(-c2cc(-c3ccc(O)cc3)c(Cl)nc2Cl)cc1
Inhibition (WEHI265.1 [1]): 52%
